Measurements from patent US20030049814A1, “Herbicide resistant plants” (priority 1999, published 2003).
Structures can show the parent of a compound that is named as a salt.

Columns and labels:
[1] = tested on: sensitive w/t form of EPSPS (endogenous); experiment: EPSPS assay of plant extracts with or without glyphosate, sensitive enzyme; type: biochemical, corn; settings: 0.1 mM glyphosate, 0.1 mM 14C-PEP, 0.75 mM shikimate-3-Pi
Experimental: (§1) Assays are carried out generally according to the radiochemical method of Padgette et al 1987 (Archives of Biochemistry and Biophysics, 258(2) 564-573) with K+ions as the major species of cationic counterion. Assays in a total volume of 50 μl, in 50 mM Hepes(KOH) pH 7.0 at 25° C., contain purified enzyme or plant extract (see below) diluted appropriately in Hepes pH 7.0 containing 10% glycerol, and 5 mM DTT, ^14C PEP either as variable substrate(for kinetic determinations) or fixed at 100 or 250 μM and shikimate 3 Phosphate (K+salt) at 2 or 0.75 mM as indicated. Optionally, for assays of crude plant extracts, assays also contain 5 mM KF and/or 0.1 mM ammonium molybdate. Assays are started with the addition of ^14C phosphoenolpyruvate (cyclohexylammonium+salt) and stopped after 2-10 minutes (2 minutes is preferable) with the addition of 50μl of a solution of 1 part 1M acetic acid and 9 parts ethanol. […] Apparent Km and Vmax values are determined by least squares fit to a hyperbola with simple weighting using the Grafit 3.09b from Erithacus Software Ltd. Km values are generally ascertained using 8-9 concentrations of variable substrate ranging from Km/2-10 Km and triplicate points. […]

[2] = tested on: resistant form of EPSPS; experiment: EPSPS assay of plant extracts with or without glyphosate, resistant enzyme; type: biochemical, rice; settings: 0.1 mM glyphosate, 0.1 mM 14C-PEP, 0.75 mM shikimate-3-Pi
Experimental: as §1

[3] = molecular target: T1, mutant form of rice EPSPS (Oryza sativa, UniProt A0A0N9WU17, P177S/T173I); experiment: EPSPS enzyme assay (radiochemical) of purified mutant rice EPSPS; type: biochemical
T1 sequence (A0A0N9WU17 72-515 T173I/P177S): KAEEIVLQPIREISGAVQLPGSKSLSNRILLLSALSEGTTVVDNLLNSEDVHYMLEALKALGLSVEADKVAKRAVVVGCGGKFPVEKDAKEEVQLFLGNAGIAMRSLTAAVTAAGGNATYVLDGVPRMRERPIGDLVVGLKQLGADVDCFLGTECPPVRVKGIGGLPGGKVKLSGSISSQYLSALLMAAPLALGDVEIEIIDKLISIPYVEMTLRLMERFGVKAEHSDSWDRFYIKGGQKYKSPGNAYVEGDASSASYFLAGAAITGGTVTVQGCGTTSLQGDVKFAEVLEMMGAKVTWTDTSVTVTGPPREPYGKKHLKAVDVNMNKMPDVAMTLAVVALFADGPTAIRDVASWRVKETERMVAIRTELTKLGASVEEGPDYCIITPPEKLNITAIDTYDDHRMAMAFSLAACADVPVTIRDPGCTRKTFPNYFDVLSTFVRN
Text: The resultant products are gel purified and placed into a tube in eqi-molar concentrations to serve as a template for another round of PCRs with the rice 5′ and 3′ oligos. The resultant products are cloned into pCRBlunt II using Invitrogens Zero Blunt TOPO kit. It is confirmed that the DNA sequence of the insert and its predicted open reading frame correspond to that of the predicted mature chloroplastic rice EPSPS protein (with the exception of the presence of an initiating Met) and also that the desired changes (the specific mutation of T to I and P to S at specific positions in the EPSPS sequence) are encoded . The thus cloned and verified rice epsps sequence is excised using Nde 1 and Xho 1 and the purified fragment cloned into pET24a (Novagen) digested similarly. The recombinant clones are introduced into BL21 (DE3), a codon optimised RP strain of E. coli supplied by Strategene. The EPSPS protein is expressed in this strain following addition of 1 mM IPTG to the fermenter medium (LB supplemented with 100 ug/ml Kanamycin). […]

Structure (SMILES)	inhibition of sensitive w/t (endogenous) EPSPS [1]	inhibition of resistant (tolerant) EPSPS [2]	inhibition of resistant (tolerant) EPSPS ([2]; listed as glyphosate)	IC50 [3]	Ki [3]
O=C(O)CNCP(=O)(O)O [N-(phosphonomethyl)glycine, N-phosphonomethylglycine]	> 98%	< 8.5%	~8%	–	–
O=C(O)CNCP(=O)(O)O [potassium salt of glyphosate]	–	–	–	~600 µM	~200 µM
